From US10487068B2, “Pyridazine derivatives as RORc modulators” (Genentech, Inc., priority 2015, dated 2019)

Target: T1, RORc ligand binding domain (Homo sapiens, UniProt P51449)
T1 sequence (P51449 269-508 limits assumed): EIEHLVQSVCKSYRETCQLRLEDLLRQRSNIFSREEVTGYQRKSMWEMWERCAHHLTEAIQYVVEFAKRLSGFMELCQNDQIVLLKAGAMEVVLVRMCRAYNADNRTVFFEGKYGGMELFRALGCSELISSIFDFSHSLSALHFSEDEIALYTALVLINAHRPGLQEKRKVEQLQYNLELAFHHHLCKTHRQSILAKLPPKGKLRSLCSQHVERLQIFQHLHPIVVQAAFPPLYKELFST
Test: In Vitro RORc Ligand Binding Assay
Details: RORc IC50, radioligand 25-[3H]hydroxycholesterol 6 nM; 0.6 ug/mL RORc receptor; 3 h at 25° C.

| SMILES | IC50 [nM] |
| --- | --- |
| CC1(C)[C@H]2CC[C@]1(c1cncc(-n3ccncc3=O)n1)c1nnc(-c3c(F)cccc3F)cc12 [Example 421, 6′-((5R,8S)-3-(2,6-difluorophenyl)-9,9-dimethyl-5,6,7,8-tetrahydro-5,8-methanocinnolin-8-yl)-2H-[1,2′-bipyrazin]-2-one] | 39.5 |
| CC1(C)[C@H]2CC[C@]1(c1cncc(Oc3cnccn3)n1)c1nnc(-c3c(F)cccc3F)cc12 [Example 422] | 16 |
| CC(C)(O)c1nc(-c2cncc([C@@]34CC[C@@H](c5cc(-c6c(F)cccc6F)nnc53)C4(C)C)n2)oc1Br [Example 426, 2-(5-bromo-2-(6-((5R,8S)-3-(2,6-difluorophenyl)-9,9-dimethyl-5,6,7,8-tetrahydro-5,8-methanocinnolin-8-yl)pyrazin-2-yl)oxazol-4-yl)propan-2-ol] | 12.1 |
| CC1(C)[C@H]2CC[C@]1(c1cncc(-c3nc([C@@](C)(O)C(F)(F)F)co3)n1)c1nnc(-c3c(F)cccc3F)cc12 [Example 427, (R)-2-(2-(6-((5R,8S)-3-(2,6-difluorophenyl)-9,9-dimethyl-5,6,7,8-tetrahydro-5,8-methanocinnolin-8-yl)pyrazin-2-yl)oxazol-4-yl)-1,1,1-trifluoropropan-2-ol] | 15.9 |
| CC1(C)[C@H]2CC[C@]1(c1cncc(-c3nc([C@](C)(O)C(F)(F)F)co3)n1)c1nnc(-c3c(F)cccc3F)cc12 [Example 428, (S)-2-(2-(6-((5R,8S)-3-(2,6-difluorophenyl)-9,9-dimethyl-5,6,7,8-tetrahydro-5,8-methanocinnolin-8-yl)pyrazin-2-yl)oxazol-4-yl)-1,1,1-trifluoropropan-2-ol] | 15.7 |
| CC[C@](C)(O)c1coc(-c2cncc([C@@]34CC[C@@H](c5cc(-c6c(F)cccc6F)nnc53)C4(C)C)n2)n1 [Example 429, (S)-2-(2-(6-((5R,8S)-3-(2,6-difluorophenyl)-9,9-dimethyl-5,6,7,8-tetrahydro-5,8-methanocinnolin-8-yl)pyrazin-2-yl)oxazol-4-yl)butan-2-ol] | 13.8 |
| CC[C@@](C)(O)c1coc(-c2cncc([C@@]34CC[C@@H](c5cc(-c6c(F)cccc6F)nnc53)C4(C)C)n2)n1 [Example 430, (R)-2-(2-(6-((5R,8S)-3-(2,6-difluorophenyl)-9,9-dimethyl-5,6,7,8-tetrahydro-5,8-methanocinnolin-8-yl)pyrazin-2-yl)oxazol-4-yl)butan-2-ol] | 15 |
| CC1(C)[C@H]2CC[C@]1(c1cncc(-c3nc(C(O)(O)C(F)(F)F)co3)n1)c1nnc(-c3c(F)cccc3F)cc12 [Example 431, 1-(2-(6-((5R,8S)-3-(2,6-difluorophenyl)-9,9-dimethyl-5,6,7,8-tetrahydro-5,8-methanocinnolin-8-yl)pyrazin-2-yl)oxazol-4-yl)-2,2,2-trifluoroethane-1,1-diol] | 21.3 |
| CC(C)(O)c1nc(-c2cncc([C@@]34CC[C@@H](c5cc(-c6c(F)cccc6F)nnc53)C4(C)C)n2)oc1Cl [Example 432, 2-(5-chloro-2-(6-((5R,8S)-3-(2,6-difluorophenyl)-9,9-dimethyl-5,6,7,8-tetrahydro-5,8-methanocinnolin-8-yl)pyrazin-2-yl)oxazol-4-yl)propan-2-ol] | 18 |
| CC(C)(O)c1nc(-c2cncc([C@@]34CC[C@@H](c5cc(-c6c(F)cccc6F)nnc53)C4(C)C)n2)oc1CO [Example 433, 2-(2-(6-((5R,8S)-3-(2,6-difluorophenyl)-9,9-dimethyl-5,6,7,8-tetrahydro-5,8-methanocinnolin-8-yl)pyrazin-2-yl)-5-(hydroxymethyl)oxazol-4-yl)propan-2-ol] | 38.5 |
| COC(=O)c1n[nH]c(=O)cc1[C@@]12CC[C@@H](c3cc(-c4c(F)cccc4F)nnc31)C2(C)C [Example 436] | 192 |

Now those with a lower IC50, led by results:

| IC50 [nM] | SMILES |
| --- | --- |
| 9.6 | C[C@H](O)Cn1ccc(-c2cncc([C@@]34CC[C@@H](c5cc(-c6c(F)cccc6F)nnc53)C4(C)C)n2)n1 [Example 423, (S)-1-(3-(6-((5R,8S)-3-(2,6-difluorophenyl)-9,9-dimethyl-5,6,7,8-tetrahydro-5,8-methanocinnolin-8-yl)pyrazin-2-yl)-1H-pyrazol-1-yl)propan-2-ol] |
| 10.9 | CC1(C)[C@H]2CC[C@]1(c1cncc(-c3ccn(CCC#N)n3)n1)c1nnc(-c3c(F)cccc3F)cc12 [Example 424, 3-(3-(6-((5R,8S)-3-(2,6-difluorophenyl)-9,9-dimethyl-5,6,7,8-tetrahydro-5,8-methanocinnolin-8-yl)pyrazin-2-yl)-1H-pyrazol-1-yl)propanenitrile] |
| 11.4 | CNS(=O)(=O)c1cncc([C@@]23CC[C@@H](c4cc(-c5c(F)cccc5F)nnc42)C3(C)C)n1 [Example 425, 6-((5R,8S)-3-(2,6-difluorophenyl)-9,9-dimethyl-5,6,7,8-tetrahydro-5,8-methanocinnolin-8-yl)-N-methylpyrazine-2-sulfonamide] |
| 11 | CCS(=O)(=O)Cc1coc(-c2cncc([C@@]34CC[C@@H](c5cc(-c6c(F)cccc6F)nnc53)C4(C)C)n2)n1 [Example 434, 2-(6-((5R,8S)-3-(2,6-difluorophenyl)-9,9-dimethyl-5,6,7,8-tetrahydro-5,8-methanocinnolin-8-yl)pyrazin-2-yl)-4-((ethylsulfonyl)methyl)oxazole] |
| 11.7 | CC1(C)[C@H]2CC[C@]1(c1cncc(-c3nc(CS(=O)(=O)C4CC4)co3)n1)c1nnc(-c3c(F)cccc3F)cc12 [Example 435, 4-((cyclopropylsulfonyl)methyl)-2-(6-((5R,8S)-3-(2,6-difluorophenyl)-9,9-dimethyl-5,6,7,8-tetrahydro-5,8-methanocinnolin-8-yl)pyrazin-2-yl)oxazole] |
